Patent US9975903B2, “Condensed heterocyclic compound” (Takeda Pharmaceutical Company Limited, priority 2014, dated 2018)
Counter-ions that a name gives are not always drawn.

Target: T1, Human recombinant enteropeptidase (Homo sapiens, UniProt P98073)
T1 construct: purchased ITSI-Biosciences LLC #REN-260
Assay: Human enteropeptidase inhibitory activity (Test Example 1)
Type: biochemical
Details: 3.3 μM test compound; inhibition rate from fluorescence intensity at 2 hours after the start of the reaction; read-out: 3.3 μM Inhibition
Method: Human recombinant enteropeptidase (#REN-260, ITSI-Biosciences LLC) was diluted with an assay buffer (50 mM Tricine, pH 8.0, 0.01 (w/v) %, Tween 20, 10 mM CaCl2) to prepare a 24 mU/mL enzyme solution. Subsequently, 5FAM-Abu-Gly-Asp-Asp-Asp-Lys-Ile-Val-Gly-Gly-Lys(CPQ2)-Lys-Lys-NH2 (SEQ ID NO: 1, purity: 97.2%, CPC Scientific Inc.) was diluted with the assay buffer to prepare a 2.1 μM substrate solution. A test compound is dissolved in DMSO into a 1 mM solution, and the solution was diluted by 100-fold with the assay buffer to give a compound solution. To a 384-well black plate (#784076, Greiner Bio-One), 5 μL of the compound solution and 5 μL of the substrate solution were added and mixed, and 5 μL of the enzyme solution was then added to the mixture, followed by mixing to start the reaction. The fluorescence intensity was measured with a fluorescence plate reader EnVision (The Perkin-Elmer Corp.) at an excitation wavelength of 485 nm and a fluorescence wavelength of 535 nm. The same reaction as above except that the test compound was not contained was performed (test compound non-addition group). Furthermore, the same reaction as above except that the test compound and the enzyme were not contained was performed (control group). The inhibition rate was calculated using the fluorescence intensity at 2 hours after the start of the reaction by the following expression: Inhibition rate (%)=(1−((fluorescence intensity of test compound addition group)−(fluorescence intensity of control group))/((fluorescence intensity of test compound non-addition group)−(fluorescence intensity of control group)))×100

T1 sequence (P98073 whole entry): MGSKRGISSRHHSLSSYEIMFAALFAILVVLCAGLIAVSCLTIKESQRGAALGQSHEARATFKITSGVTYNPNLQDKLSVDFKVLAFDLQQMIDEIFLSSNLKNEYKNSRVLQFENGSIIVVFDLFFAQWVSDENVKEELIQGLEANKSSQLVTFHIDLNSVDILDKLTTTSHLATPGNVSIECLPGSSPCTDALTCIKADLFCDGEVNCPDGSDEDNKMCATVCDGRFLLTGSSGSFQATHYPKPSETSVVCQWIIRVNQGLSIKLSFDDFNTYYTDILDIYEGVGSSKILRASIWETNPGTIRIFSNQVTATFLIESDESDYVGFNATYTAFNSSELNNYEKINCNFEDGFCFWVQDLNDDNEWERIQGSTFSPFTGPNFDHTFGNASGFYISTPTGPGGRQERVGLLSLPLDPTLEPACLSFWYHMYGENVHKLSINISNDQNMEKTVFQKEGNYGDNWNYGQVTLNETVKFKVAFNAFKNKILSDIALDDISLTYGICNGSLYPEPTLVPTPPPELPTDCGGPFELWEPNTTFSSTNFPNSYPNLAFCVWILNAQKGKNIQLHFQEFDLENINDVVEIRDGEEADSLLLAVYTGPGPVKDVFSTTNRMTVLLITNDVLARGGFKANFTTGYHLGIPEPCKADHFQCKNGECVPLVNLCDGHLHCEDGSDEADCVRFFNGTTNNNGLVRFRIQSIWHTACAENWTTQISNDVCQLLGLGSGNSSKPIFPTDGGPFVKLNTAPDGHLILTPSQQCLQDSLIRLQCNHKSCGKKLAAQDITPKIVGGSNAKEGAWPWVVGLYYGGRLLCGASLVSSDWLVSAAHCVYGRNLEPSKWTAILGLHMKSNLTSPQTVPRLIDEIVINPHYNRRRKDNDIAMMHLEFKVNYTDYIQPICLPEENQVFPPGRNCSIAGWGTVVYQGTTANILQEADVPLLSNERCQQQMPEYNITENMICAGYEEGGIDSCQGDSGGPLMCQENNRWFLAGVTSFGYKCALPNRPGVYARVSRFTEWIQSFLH

Compared with `COC(=O)CN(C(=O)c1cccc2c1OCCCc1cc(NC(=N)N)ccc1C(=O)O2)[C@@H](CC(=O)O)C(=O)O` [Example 139, N-((10-carbamimidamido-13-oxo-6,7,8,13-tetrahydro-dibenzo[b,f] [1,4]dioxecin-4-yl)carbonyl)-N-(2-methoxy-2-oxoethyl)-L-aspartic acid], `N=C(N)Nc1ccc2c(c1)CCCCOc1c(cccc1C(=O)N[C@@H](CC(=O)O)C(=O)O)OC2=O` [Example 82, N-((11-carbamimidamido-14-oxo-7,8,9,14-tetrahydro-6H-dibenzo[b,f][1,4]dioxacycloundecin-4-yl)carbonyl)-L-aspartic acid] is higher in inhibition at 3.3 µM: 100% for the first, 102% for the second.

First: N=C(N)Nc1ccc2c(c1)CCCOc1c(cccc1C(=O)N(CC(=O)O)Cc1ccc(CC(=O)O)cc1)OC2=O [Example 142, N-((10-carbamimidamido-13-oxo-6,7,8,13-tetrahydro-dibenzo[b,f] [1,4]dioxecin-4-yl)carbonyl)-N-(4-(carboxymethyl)benzyl)glycine]
Second: N=C(N)Nc1ccc2c(c1)CCCOc1c(cccc1C(=O)N(CC(=O)O)Cc1cccc(C(=O)O)c1)OC2=O [Example 71, 3-((((10-Carbamimidamido-13-oxo-6,7,8,13-tetrahydrodibenzo[b,f][1,4]dioxecin-4-yl)carbonyl) (carboxymethyl)amino)methyl)benzoic acid]
The inhibition at 3.3 µM of the first is lower: 98% for the first, 100% for the second.

First: N=C(N)Nc1ccc2c(c1)CCCOc1c(cccc1C(=O)N(CC(=O)O)[C@@H](Cc1ccccc1)C(=O)O)OC2=O [Example 133, N-((10-carbamimidamido-13-oxo-6,7,8,13-tetrahydro-dibenzo[b,f] [1,4]dioxecin-4-yl)carbonyl)-N-(carboxymethyl)-L-phenylalanine]
Second: N=C(N)Nc1ccc2c(c1)CCCOc1c(cccc1C(=O)N[C@@H](CCC(=O)O)C(=O)O)OC2=O [Example 18, N-((10-Carbamimidamido-13-oxo-6,7,8,13-tetrahydrodibenzo[b,f][1,4]dioxecin-4-yl)carbonyl)-L-glutamic acid]
The inhibition at 3.3 µM of the first is lower: 100% for the first, 101% for the second.

Going from `N=C(N)Nc1ccc2c(c1)CCCOc1c(ccc(CCC(=O)N(CC(=O)O)CC(=O)O)c1C(=O)N[C@@H](Cc1ccc(O)cc1)C(=O)O)OC2=O` [Example 124, N-((3-(3-(bis(carboxymethyl)amino)-3-oxopropyl)-10-carbamimidamido-13-oxo-6,7,8,13-tetrahydro-dibenzo[b,f] [1,4]dioxecin-4-yl)carbonyl)-L-tyrosine] to `COc1ccc(C[C@H](NC(=O)c2c(CCC(=O)N(CC(=O)O)CC(=O)O)ccc3c2OCCCc2cc(NC(=N)N)ccc2C(=O)O3)C(=O)O)cc1` [Example 130, N-((3-(3-(bis(carboxymethyl)amino)-3-oxopropyl)-10-carbamimidamido-13-oxo-6,7,8,13-tetrahydro-dibenzo[b,f] [1,4]dioxecin-4-yl)carbonyl)-O-methyl-L-tyrosine], the inhibition at 3.3 µM falls from 101% to 99%.

`N=C(N)Nc1ccc2c(c1)CCCOc1c(cccc1C(=O)NCC(=O)O)OC2=O` [Example 89, N-((10-carbamimidamido-13-oxo-6,7,8,13-tetrahydro-dibenzo[b,f] [1,4]dioxecin-4-yl)carbonyl)glycine] and `N=C(N)Nc1ccc2c(c1)CCCOc1c(cccc1C(=O)N[C@@H](CO)C(=O)O)OC2=O` [Example 86, N-((10-carbamimidamido-13-oxo-6,7,8,13-tetrahydro-dibenzo[b,f] [1,4]dioxecin-4-yl)carbonyl)-L-serine] are the same in inhibition at 3.3 µM: 101% for the first, 101% for the second.

Compared with `N=C(N)Nc1ccc2c(c1)CCCc1cc(C(=O)N[C@@H](CC(=O)O)C(=O)O)ccc1OC2=O` [Example 73, N-((9-carbamimidamido-6-oxo-6,11,12,13-tetrahydro-dibenzo[b,g]oxonin-2-yl)carbonyl)-L-aspartic acid], `N=C(N)Nc1ccc2c(c1)CCCCCc1c(cccc1C(=O)N[C@@H](CC(=O)O)C(=O)O)OC2=O` [Example 76, N-((3-Carbamimidamido-15-oxo-5,6,7,8,9,15-hexahydrodibenzo[b,i]hexacycloundecin-10-yl)carbonyl)-L-aspartic acid] is higher in inhibition at 3.3 µM: 100% for the first, 101% for the second.

Compared with `N=C(N)Nc1ccc2c(c1)CCCCc1c(cc3c(c1C(=O)NCCS(=O)(=O)O)CCO3)OC2=O` [Example 36, 2-(((3-carbamimidamido-15-oxo-5,7,8,10,11,15-hexahydro-6H-12,14-dioxabenzo[5,6]cyclodeca[1,2-f]inden-9-yl)carbonyl)amino)ethane-sulfonic acid], `N=C(N)Nc1ccc2c(c1)CCCCc1c(CC(=O)N[C@@H](CC(=O)O)C(=O)O)cccc1OC2=O` [Example 32, N-((3-carbamimidamido-14-oxo-5,7,8,14-tetrahydro-6H-dibenzo[b,h]oxecin-9-yl)acetyl)-L-aspartic acid] is lower in inhibition at 3.3 µM: 94% for the first, 71% for the second.

`N=C(N)Nc1ccc2c(c1)CCCOc1c(ccc(CCC(=O)O)c1C(=O)O)OC2=O` [Example 111, 10-carbamimidamido-3-(2-carboxyethyl)-13-oxo-6,7,8,13-tetrahydro-dibenzo[b,f] [1,4]dioxecine-4-carboxylic acid] and `N=C(N)Nc1ccc2c(c1)CCCOc1c(ccc(CCC(=O)O)c1C(=O)N[C@@H](CC(=O)O)C(=O)O)OC2=O` [Example 110, N-((10-Carbamimidamido-3-(2-carboxyethyl)-13-oxo-6,7,8,13-tetrahydrodibenzo[b,f][1,4]dioxecin-4-yl)carbonyl)-L-aspartic acid] are the same in inhibition at 3.3 µM: 100% for the first, 100% for the second.

First: N=C(N)Nc1ccc2c(c1)OCCCCOc1cc(CCC(=O)NC(CC(=O)O)C(=O)O)ccc1OC2=O (centres unmarked) [Example 46, N-(3-(3-carbamimidamido-16-oxo-6,7,8,9-tetrahydro-16H-dibenzo[b,f][1,4,8]trioxacyclo-dodecin-12-yl)propanoyl) aspartic acid]
Second: N=C(N)Nc1ccc2c(c1)CCCOc1c(CCC(=O)NC(CC(=O)O)CC(=O)O)cccc1OC2=O [Example 96, 3-((3-(10-carbamimidamido-13-oxo-6,7,8,13-tetrahydro-dibenzo[b,f] [1,4]dioxecin-4-yl)propanoyl)amino) pentanedioic acid]
The inhibition at 3.3 µM of the first is lower: 100% for the first, 101% for the second.

Compared with `N=C(N)Nc1ccc2c(c1)CCc1ccccc1OC2=O` [Example 58, 1-(6-Oxo-11,12-dihydro-6H-dibenzo[b,f]oxocin-9-yl)guanidine trifluoroacetate], `N=C(N)Nc1ccc2c(c1)CCCOc1c(cccc1C(=O)N(CCC(=O)O)CCC(=O)O)OC2=O` [Example 9, 3,3′-(((10-carbamimidamido-13-oxo-6,7,8,13-tetrahydro-dibenzo[b,f] [1,4]dioxecin-4-yl)carbonyl)imino) dipropanoic acid (non-preferred name)] is higher in inhibition at 3.3 µM: 55% for the first, 101% for the second.

First: N=C(N)Nc1ccc2c(c1)CCCCc1c(cccc1C(=O)N(CC(=O)O)Cc1cccc(C(=O)O)c1)OC2=O [Example 128]
Second: N=C(N)Nc1ccc2c(c1)CCCOc1c(CCC(=O)N[C@@H](Cc3ccc(O)cc3)C(=O)O)cccc1OC2=O [Example 95, N-(3-(10-carbamimidamido-13-oxo-6,7,8,13-tetrahydro-dibenzo[b,f] [1,4]dioxecin-4-yl)propanoyl)-L-tyrosine]
The inhibition at 3.3 µM of the first is lower: 100% for the first, 101% for the second.

`N=C(N)Nc1ccc2c(c1)CCCOc1c(ccc(CCC(=O)O)c1C(=O)N(CCN(CC(=O)O)CC(=O)O)CC(=O)O)OC2=O` [Example 149] was tested, and the inhibition at 3.3 µM was 101%.
